Where no end group is shown, it is not given here. [ ]: non-standard residue; d: D form. pY = N[C@@H](Cc1ccc(OP(=O)(O)O)cc1)C(=O)O
T1: MBP-STAT5b-SH2 (Homo sapiens, UniProt P51692)
T1 sequence (P51692 589-686 limits assumed): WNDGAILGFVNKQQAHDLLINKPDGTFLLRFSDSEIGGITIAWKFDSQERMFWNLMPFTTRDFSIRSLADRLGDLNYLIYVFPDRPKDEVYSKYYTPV

T2: MBP-STAT5b-SH2 (Homo sapiens, UniProt P51692, N642A)
T2 sequence (P51692 589-686 N642A limits assumed): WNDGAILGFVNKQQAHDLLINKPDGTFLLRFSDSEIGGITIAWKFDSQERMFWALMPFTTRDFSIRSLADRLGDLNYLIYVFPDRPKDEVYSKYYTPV

T3: MBP-STAT5b-SH2 N642A (human, UniProt P51692 589-686, N642A)
T3 construct: STAT5b, SH2 domain with N642A; Same construct as m1 apart from the mutation; also called STAT5b-N642A; mutant STAT5b-N642A; source: generated by site-directed mutagenesis
T3 sequence (looked up): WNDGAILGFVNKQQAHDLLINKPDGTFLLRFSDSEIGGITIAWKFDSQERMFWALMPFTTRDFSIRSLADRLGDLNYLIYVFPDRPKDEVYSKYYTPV

T4: STAT5b-SH2 domain fused to maltose-binding protein (MBP) (human, UniProt P51692 589-686)
T4 construct: STAT5b, SH2 domain; also called MBP-STAT5b-SH2; MBP-STAT5b; source: recombinantly expressed
T4 sequence (looked up): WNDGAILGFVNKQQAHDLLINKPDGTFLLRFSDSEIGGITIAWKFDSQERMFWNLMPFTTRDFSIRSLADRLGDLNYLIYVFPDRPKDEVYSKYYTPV


Legend:
MBP-STAT5b-SH2 [1] = target: T1, MBP-STAT5b-SH2; test: biochemical; parameters: fluorescence polarization competition with carboxyfluorescein-labelled phosphopeptide on MBP-STAT5b-SH2
Procedure: 24 sealed with optical seal, shaken for 15 min, and centrifuged. Thermal scanning (20 to 95°C at 1°C/min) was performed using a real-time PCR setup (Light Cycler, Roche Diagnostics, Mannheim, Germany) and fluorescence intensity was measured after every 0.3 s. Curve fitting, melting temperature calculation and report generation on the raw data were performed using GraphPad Prism 5 software. Fluorescence polarization assays and screening Ca. 17000 compounds and fragments from the ChemBioNet library were tested in a fluorescence polarization (FP) assay to investigate their ability to bind to STAT5b-SH2 domain by displacing the fluorophore-labeled peptide 5-carboxyfluorescein-GY (PO3H2) LSLPPW-NH2 1. Purified compounds were tested in the same assay. The peptide purity was >95% and the assays were performed at room temperature. The final concentration of buffer components used was 10 mM HEPES (pH 7.5), 1 mM EDTA, 0.1% Igepal CA-630, 50 mM NaCl, and 5% DMSO and the final concentration of protein used was at 125 nM. The protein was first added to the black 384-well plate (Corning cat.CLS3676, Sigma Aldrich, Taufkirchen, Germany) followed by test compounds and fluorophore-labeled peptide. The plates were centrifuged, and measured using Safire2 well plate reader (Tecan, Crailsheim, Germany) after 15 min incubation at room temperature. For testing secondary site binding of primary hit fragments, the same assay was conducted in the presence of 4-formylphenyl phosphate 2 as described earlier. For specificity analysis, FP assay was conducted with 100 nM GST-tagged, full length human STAT3 protein (cat. S54-54G-50, SignalChem, Richmond, BC, Canada) and 10 nM fluorophore-labeled peptides (5-carboxyfluorescein-GY (PO3H2) LPQTV-NH2). […] Ligands with such high ligand efficiency are rather found for enzymatic binding pockets than for protein–protein interaction sites and thus fragment 3 was selected for further validation. Binding of 3 to STAT5b-SH2 was confirmed using the thermofluor assay[28],[29], a thermal shift assay (TSA), as an independent biophysical assay. Binding of fragment 3 augmented the melting point of STAT5 by ΔTm of 3 °C (Supplementary Figure 1). Potential binding modes of the phosphotyrosine 2 and the fragment hit 3 were scrutinized using a homology model of STAT5b derived from the crystal structure of STAT5a (PDB:1Y1U [10.2210/pdb1Y1U/pdb]) for molecular docking (Fig. 1b, c)[30]. The phosphotyrosine binding site in the STAT5-SH2 domain is shallow compared with the deeper binding pockets of PTP[31],[32], coordinating phenyl phosphate 2 by only two amino-acid residues, Arg618 and Ser622. As a result, the benzene ring of 2 is not buried in a cavity like in the case of PTPs but rather exposed to the solvent at the protein surface.

MBP-STAT5b-SH2 [2] = target: T1, MBP-STAT5b-SH2; test: fluorescence polarization competition with peptide […]; assay type: binding; settings: […] MOPS pH […], room temperature; competitive
MBP-STAT5b-SH2 [3] = target: T2, MBP-STAT5b-SH2; test: as above; assay type: binding; settings: […] MOPS pH […], room temperature; competitive
MBP-STAT5b-SH2 [4] = target: T1, MBP-STAT5b-SH2; test: as above; assay type: binding; settings: […] MOPS pH […], room temperature; competitive; remark: listed apart in the source
MBP-STAT5b-SH2 N642A = target: T3, MBP-STAT5b-SH2 N642A; test: fluorescence polarisation; MBP-STAT5b-SH2 with peptide 1 (10 nM), 50 mM MOPS buffer pH 7.4, room temperature, 20 µl; settings: both partners purified
[5] = target: T4, STAT5b-SH2 domain fused to …; test: as above; settings: both partners purified

Molecule | Ki (MBP-STAT5b-SH2 [2]) [µM] | Ki (MBP-STAT5b-SH2 [1]) [µM] | also measured
O=Cc1ccc(OP(=O)(O)O)cc1 [compound 2, 4-formylphenyl phosphate] |  | > 2500 | 
O=C(Cn1cnnn1)Nc1nonc1C(=O)O [compound 5, 4-(2-(1H-tetrazol-1-yl)-acetamido)-1,2,5-oxadiazole-3-carboxylic acid] |  | > 2500 | 
O=C(O)c1nonc1NCn1cnnn1 [compound 10, 4-(Tetrazolyl-1-methylamino)-furazan-3-carboxylic acid] |  |  | IC50 (MBP-STAT5b-SH2 [3]): 30 µM; IC50 (MBP-STAT5b-SH2 [4]): 1.5 µM
O=C(O)c1nonc1NCn1nnnc1-c1cccc(F)c1 [compound 13, 5-(3-fluorophenyl) 13] | 0.6 |  | 
c1nnn[nH]1 [compound 25, 1H-tetrazole] |  | > 2500 | 
c1ccc(Cc2nn[nH]n2)cc1 [compound 26, benzyl-tetrazole] |  | > 2500 | 
G[pY]LSLPPW (not fully specified (N-terminus); also: carboxyfluorescein label, place not given here) [carboxyfluoresceine-labeled phosphotyrosine octapeptide 1] |  |  | Kd (MBP-STAT5b-SH2 N642A): ~5 µM; Kd [5]: 0.055 µM

More lines, main results first:

Ki (MBP-STAT5b-SH2 [2]) [µM] | Molecule | Ki (MBP-STAT5b-SH2 [1]) [µM] | also measured
122 ± 25 | O=C(O)c1nonc1NCn1cccn1 [compound 8, pyrazol-1-yl 8] |  | 
1.4 | O=C(O)c1nonc1NCn1nnnc1-c1ccccc1 [compound 11, 4-(5-phenyl-tetrazol-1-yl-methylamino)-furazane-3-carboxylate] |  | 
0.9 | O=C(O)c1nonc1NCn1nnnc1-c1cccc(C(F)(F)F)c1 [compound 12, 5-(3-trifluoromethyl-phenyl)-12] |  | 
